Laboratory results taken from the supplement of paper PMC10307832.

Key:
Experiment in all cases: relative viability (nuclei count vs DMSO), 5 days (fraction); higher = more cells survive
A-427 = tested on: A-427
How it was run: (§1)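 For relative viability, nuclei counts in treated wells were divided by those in vehicle wells. Lung cancer cell lines had been pin-tool dosed in 1536-well plates the day after seeding and cultured for 5 days, then fixed and stained in one step (final 0.05% Triton X-100, 1% formaldehyde, 1 ug/ml Hoechst) and imaged at 4×. Doses were one drug alone or a fixed anchor-drug dose plus five library-drug doses (not always all listed) in √10 steps, and values are duplicate-plate medians.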

HCC-15 = tested on: HCC-15
How it was run: as §1

HCC-78 = tested on: HCC-78
How it was run: as §1

HOP-62 = tested on: HOP-62
How it was run: as §1

LC-2-ad = tested on: LC-2-ad
How it was run: as §1

LXF-289 = tested on: LXF-289
How it was run: as §1

NCI-H1734 = tested on: NCI-H1734
How it was run: as §1

NCI-H1755 = tested on: NCI-H1755
How it was run: as §1

NCI-H1792 = tested on: NCI-H1792
How it was run: as §1

NCI-H1915 = tested on: NCI-H1915
How it was run: as §1

NCI-H1975 = tested on: NCI-H1975
How it was run: as §1

NCI-H2126 = tested on: NCI-H2126
How it was run: as §1

NCI-H2228 = tested on: NCI-H2228
How it was run: as §1

NCI-H2347 = tested on: NCI-H2347
How it was run: as §1

NCI-H358 = tested on: NCI-H358
How it was run: as §1

NCI-H647 = tested on: NCI-H647
How it was run: as §1

PC-3 [JPC-3] = tested on: PC-3 [JPC-3]
How it was run: as §1

RERF-LC-KJ = tested on: RERF-LC-KJ
How it was run: as §1

SK-LU-1 = tested on: SK-LU-1
How it was run: as §1

SW 1573 = tested on: SW 1573
How it was run: as §1

Compound: Cc1sc2c(c1C)C(c1ccc(Cl)cc1)=N[C@@H](CC(=O)OC(C)(C)C)c1nnc(C)n1-2 [JQ1] + C[C@@H](Oc1cc(-c2cnn(C3CCNCC3)c2)cnc1N)c1c(Cl)ccc(F)c1Cl [Crizotinib] (partner 1 µM)
- relative viability (A-427; first compound 0.04 µM): 0.997
- relative viability (A-427; first compound 0.1265 µM): 0.947
- relative viability (A-427; first compound 0.4 µM): 0.658
- relative viability (A-427; first compound 1.265 µM): 0.691
- relative viability (A-427; first compound 4 µM): 0.516
- relative viability (HCC-15; first compound 0.04 µM): 0.762
- relative viability (HCC-15; first compound 0.4 µM): 0.75
- relative viability (HCC-15; first compound 1.265 µM): 0.544
- relative viability (HCC-15; first compound 4 µM): 0.441
- relative viability (HCC-78; first compound 0.04 µM): 0.314
- relative viability (HCC-78; first compound 0.1265 µM): 0.33
- relative viability (HCC-78; first compound 0.4 µM): 0.348
- relative viability (HCC-78; first compound 1.265 µM): 0.275
- relative viability (HCC-78; first compound 4 µM): 0.251
- relative viability (HOP-62; first compound 0.04 µM): 0.714
- relative viability (HOP-62; first compound 0.1265 µM): 0.711
- relative viability (HOP-62; first compound 0.4 µM): 0.299
- relative viability (HOP-62; first compound 1.265 µM): 0.119
- relative viability (HOP-62; first compound 4 µM): 0.11
- relative viability (LC-2-ad; first compound 0.04 µM): 0.44
- relative viability (LC-2-ad; first compound 0.1265 µM): 0.348
- relative viability (LC-2-ad; first compound 0.4 µM): 0.308
- relative viability (LC-2-ad; first compound 1.265 µM): 0.277
- relative viability (LC-2-ad; first compound 4 µM): 0.258
- relative viability (LXF-289; first compound 0.04 µM): 0.84
- relative viability (LXF-289; first compound 0.1265 µM): 0.746
- relative viability (LXF-289; first compound 0.4 µM): 0.743
- relative viability (LXF-289; first compound 1.265 µM): 0.677
- relative viability (LXF-289; first compound 4 µM): 0.479
- relative viability (NCI-H1734; first compound 0.04 µM): 0.696
- relative viability (NCI-H1734; first compound 0.1265 µM): 0.659
- relative viability (NCI-H1734; first compound 0.4 µM): 0.569
- relative viability (NCI-H1734; first compound 1.265 µM): 0.449
- relative viability (NCI-H1734; first compound 4 µM): 0.331
- relative viability (NCI-H1755; first compound 0.04 µM): 0.899
- relative viability (NCI-H1755; first compound 0.1265 µM): 0.854
- relative viability (NCI-H1755; first compound 0.4 µM): 0.901
- relative viability (NCI-H1755; first compound 1.265 µM): 0.67
- relative viability (NCI-H1755; first compound 4 µM): 0.608
- relative viability (NCI-H1792; first compound 0.04 µM): 0.968
- relative viability (NCI-H1792; first compound 0.4 µM): 0.948
- relative viability (NCI-H1792; first compound 1.265 µM): 0.768
- relative viability (NCI-H1792; first compound 4 µM): 0.644
- relative viability (NCI-H1915; first compound 0.04 µM): 0.891
- relative viability (NCI-H1915; first compound 0.1265 µM): 0.829
- relative viability (NCI-H1915; first compound 0.4 µM): 0.735
- relative viability (NCI-H1915; first compound 1.265 µM): 0.462
- relative viability (NCI-H1915; first compound 4 µM): 0.233
- relative viability (NCI-H1975; first compound 0.04 µM): 0.891
- relative viability (NCI-H1975; first compound 0.1265 µM): 0.675
- relative viability (NCI-H1975; first compound 0.4 µM): 0.483
- relative viability (NCI-H1975; first compound 1.265 µM): 0.3
- relative viability (NCI-H1975; first compound 4 µM): 0.235
- relative viability (NCI-H2126; first compound 0.04 µM): 1.04
- relative viability (NCI-H2126; first compound 0.1265 µM): 0.987
- relative viability (NCI-H2126; first compound 0.4 µM): 0.901
- relative viability (NCI-H2126; first compound 1.265 µM): 0.966
- relative viability (NCI-H2126; first compound 4 µM): 0.754
- relative viability (NCI-H2228; first compound 0.04 µM): 0.455
- relative viability (NCI-H2228; first compound 0.1265 µM): 0.417
- relative viability (NCI-H2228; first compound 0.4 µM): 0.38
- relative viability (NCI-H2228; first compound 1.265 µM): 0.306
- relative viability (NCI-H2228; first compound 4 µM): 0.317
- relative viability (NCI-H2347; first compound 0.04 µM): 0.673
- relative viability (NCI-H2347; first compound 0.1265 µM): 0.549
- relative viability (NCI-H2347; first compound 0.4 µM): 0.646
- relative viability (NCI-H2347; first compound 1.265 µM): 0.555
- relative viability (NCI-H2347; first compound 4 µM): 0.431
- relative viability (NCI-H358; first compound 0.04 µM): 0.498
- relative viability (NCI-H358; first compound 0.1265 µM): 0.43
- relative viability (NCI-H358; first compound 0.4 µM): 0.473
- relative viability (NCI-H358; first compound 1.265 µM): 0.228
- relative viability (NCI-H358; first compound 4 µM): 0.25
- relative viability (NCI-H647; first compound 0.04 µM): 1.03
- relative viability (NCI-H647; first compound 0.1265 µM): 0.486
- relative viability (NCI-H647; first compound 0.4 µM): 0.276
- relative viability (NCI-H647; first compound 1.265 µM): 0.0835
- relative viability (NCI-H647; first compound 4 µM): 0.0629
- relative viability (PC-3 [JPC-3]; first compound 0.04 µM): 1.06
- relative viability (PC-3 [JPC-3]; first compound 0.1265 µM): 1.03
- relative viability (PC-3 [JPC-3]; first compound 0.4 µM): 0.96
- relative viability (PC-3 [JPC-3]; first compound 1.265 µM): 0.851
- relative viability (PC-3 [JPC-3]; first compound 4 µM): 0.512
- relative viability (RERF-LC-KJ; first compound 0.04 µM): 0.783
- relative viability (RERF-LC-KJ; first compound 0.1265 µM): 0.879
- relative viability (RERF-LC-KJ; first compound 0.4 µM): 0.777
- relative viability (RERF-LC-KJ; first compound 1.265 µM): 0.635
- relative viability (RERF-LC-KJ; first compound 4 µM): 0.29
- relative viability (SK-LU-1; first compound 0.04 µM): 0.96
- relative viability (SK-LU-1; first compound 0.1265 µM): 0.615
- relative viability (SK-LU-1; first compound 0.4 µM): 0.481
- relative viability (SK-LU-1; first compound 1.265 µM): 0.193
- relative viability (SK-LU-1; first compound 4 µM): 0.148
- relative viability (SW 1573; first compound 0.04 µM): 0.633
- relative viability (SW 1573; first compound 0.1265 µM): 0.741
- relative viability (SW 1573; first compound 0.4 µM): 0.678
- relative viability (SW 1573; first compound 1.265 µM): 0.48
- relative viability (SW 1573; first compound 4 µM): 0.385
